# Source: US6858396B2, “Positively charged non-natural amino acids, methods of making and using thereof in peptides” (Medical University of South Carolina, priority 1996, dated 2005)
# Read-outs that look alike come from different tables or passages of the source. Square brackets hold non-standard residues; d marks the D form. Ends that are not written are not given here. Peptide text beside a SMILES is read from it. hLys = NCCCCC[C@H](N)C(=O)O
# Tests used:
# Thrombin [1] = target: T1, Thrombin (Homo sapiens, UniProt P00734); assay: Thrombin inhibition (Ki); format: biochemical
# Excerpt: (§1) Thrombin is a major control point of the blood coagulation cascade, and inhibitors are of interest to combat thrombotic diseases.
# [2] = Excerpt: as §1
# Trypsin = target: T2, Trypsin (Bos taurus, UniProt P00760); assay: Trypsin inhibition (Ki); format: biochemical; settings: at its limit of solubility in water
# T2 construct: gene PRSS1
# T2 sequence (P00760 24-246): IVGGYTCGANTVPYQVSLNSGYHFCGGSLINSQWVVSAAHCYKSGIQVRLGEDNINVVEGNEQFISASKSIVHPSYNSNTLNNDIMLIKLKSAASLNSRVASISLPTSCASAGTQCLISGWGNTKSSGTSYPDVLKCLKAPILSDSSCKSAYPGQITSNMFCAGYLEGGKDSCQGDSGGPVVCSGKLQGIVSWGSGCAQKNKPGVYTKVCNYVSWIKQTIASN
# Excerpt: as §1
# NT receptor = assay: Hypothermia in rats after I.V. or I.C. injection of NT(8-13) derivatives (brain uptake across the BBB); format: in vivo
# Excerpt: Peptides 36, 39, 42, and 45 are NT(8-13) with non-natural amino acids 32-35 (Scheme L), respectively, were substituted for the Arg^(8) residue.
# Thrombin [3] = target: T1, Thrombin; assay: Competitive inhibition of thrombin in vitro, chromogenic substrate (D)-Phe-Pip-Arg-p-NA; format: biochemical; design: 0.01 units of human thrombin (Sigma); purchased Sigma; settings: for % Inhibition: peptide 20 μM, 0.01 units human thrombin, pH 7.5, 25° C.
# Procedure: A (D)-Phe-Pro-Arg-Ala analogue containing non-natural amino acid (7) (as the racemic mixture in the side chain) in place of Arg was synthesized and compared to (D)-Phe-Pro-Arg-Ala as a competitive inhibitor of thrombin in vitro. The molecule referred to as 7 is Formula I, R1=[…], R2=H, R3=H, R13=H and N=4. The stereochemistry at C2 is racemic (equal D- and L-forms present).
# Peptides were incubated individually at 20 μM concentrations with 0.01 units of human thrombin (Sigma) and saturating concentrations of the chromogenic substrate (D)-Phe-Pip-Arg-p-NA at pH 7.5 and 25° C. in 0.1 M phosphate buffer containing 0.2 M NaCl and 0.5% PEG (5c). Initial rates were determined by monitoring formation of p-NA at 405 nm in the absence and presence of the indicated peptides to determine % inhibition. Standard errors were<5%.
# [4] = in vivo; cited from earlier work
molecule,measurement,setting,value
"N=C(N)NCCC[C@H](N)C(=O)O [Arg, arginine, reference compound]",Ki,"Thrombin [1]; as the N-α-DNS, —COO-Pip derivatives, read-out: Thrombin K12",83 ± 24 nM
same,RP-HPLC Retention Time,[2],20.9 ± 0.02 min
"CCNC(=N)NCCC[C@H](N)C(=O)O [Compound 31, N(γ)ethyl-Arg]",Ki,Thrombin [1],190 ± 66 nM
same,increase in thrombin/trypsin Ki selectivity ratio compared with arginine,"Thrombin [1]; KI (Thrombin/Trypsin), 31 versus arginine",≥ 60 fold
same,inhibition of trypsin at limit of solubility in water,Trypsin,does not inhibit trypsin
same,lipophilicity based on RP-HPLC,[2]; compared with arginine,more lipophilic
same,RP-HPLC Retention Time,"[2]; measure of lipophilicity, as the N-α-DNS, —COO-Pip derivatives",23.1 ± 0.01 min
CC[C@H](C)[C@H](NC(=O)[C@H](Cc1ccc(O)cc1)NC(=O)[C@@H]1CCCN1C(=O)[C@H](CCCNC(=N)N)NC(=O)[C@@H](N)CCCCCN)C(=O)N[C@@H](CC(C)C)C(=O)O [Peptide 36] (H-[hLys]RPYIL-OH),improvement upon the previously evaluated peptides NT-1 and NT66L,NT receptor; brain uptake,≥ 300 fold
same,uptake into brain,"NT receptor; rats, single 0.2-mg I.V. dose versus I.C., estimated by potency ratios (FIG. 1B)",roughly 28%
(D)-Phe-Pro-7-Ala,% Inhibition,Thrombin [3],82%
same,better competitive inhibitor than the parent peptide,Thrombin [3]; relative to (D)-Phe-Pro-Arg-Ala,~25%
(D)-Phe-Pro-Arg-Ala ([dF]PRA) [reference compound],% Inhibition,Thrombin [3],65%
"Arg^(8)-Arg^(9)-Pro^(10)-Tyr^(11)-Ile^(12)-Leu^(13)-COOH [NT(8-13), reference compound]",activity (hypothermia) / uptake into brain after I.V. injection,"NT receptor; rats, I.V., 1.0 mg doses (FIG. 1A)",no activity
same,crossing of the blood brain barrier,[4],does not cross the blood brain barrier
